In patent US20210276977A1, “BICYCLIC INHIBITORS OF HISTONE DEACETYLASE” (Alkermes, Inc., priority 2018, published 2021):

What was measured:
Full length Human HDAC2 = biological target: T1, Full length Human HDAC2 (Homo sapiens, UniProt Q92769); experiment: HDAC2 enzymatic assay (deacetylation of FAM-labeled peptide substrate, microfluidic electrophoresis); type: biochemical; conditions: for IC50: recombinant enzymatic assay
T1 construct: Full length Human HDAC2; FLAG (C); host or cells: baculovirus expression system
Experimental: (§1) HDAC2 and HDAC1 Enzymatic Assay (HDAC2 and HDAC1 IC50 Data)
(§2) The following describes an assay protocol for measuring the deacetylation of a peptide substrate by HDAC2 or HDAC1.
(§3) HD AC protein composition and respective substrate peptides are summarized below.
(§4) HD AC reactions are assembled in 384 well plates (Greiner) in a total volume of 20 μL as following:
(§5) HDAC proteins are pre-diluted in the assay buffer comprising: 100 mM HEPES, pH 7.5, 0.1% BSA, 0.01% Triton X-100, 25 mM KCl and dispensed into 384 well plate (10 uL per well).
(§6) Test compounds are serially pre-diluted in DMSO and added to the protein samples by acoustic dispensing (Labcyte Echo). Concentration of DMSO is equalized to 1% in all samples.
(§7) Control samples (0%-inhibition in the absence of inhibitor, DMSO only) and 100%-inhibition (in the absence of enzyme) are assembled in replicates of four and used to calculate the %-inhibition in the presence of compounds.
(§8) At this step compounds can be pre-incubated with enzyme if desired.
(§9) The reactions are initiated by addition of 10 uL of the FAM-labeled substrate peptide pre-diluted in the same assay buffer. Final concentration of substrate peptide is 1 uM (HDAC1-2).
(§10) The reactions are allowed to proceed at room temperature. Following incubation, the reactions are quenched by addition of 50 μL of termination buffer (100 mM HEPES, pH7.5, 0.01% Triton X-100, 0.1% SDS). Terminated plates are analyzed on a microfluidic electrophoresis instrument (Caliper LabChip® 3000, Caliper Life Sciences/Perkin Elmer) which enables electrophoretic separation of de-acetylated product from acetylated substrate. A change in the relative intensity of the peptide substrate and product is the parameter measured. Activity in each test sample is determined as the product to sum ratio (PSR): P/(S+P), where P is the peak height of the product, and S is the peak height of the substrate. Percent inhibition (Pinh) is determined using the following equation: Pinh=(PSR0% inh−PSRcompound)/(PSR0% inh−PSR100% inh)*100, in which: PSRcompound is the product/sum ratio in the presence of compound, PSR0% inh is the product/sum ratio in the absence of compound and the PSR100% inh is the product/sum ratio in the absence of the enzyme. To determine IC50 of compounds (50%-inhibition) the %-inh data (Pinh versus compound concentration) are fit by a 4 parameter sigmoid dose-response model using XLfit software (IDBS).
(§11) In the table, “A” indicates a IC50 value of less than 0.5 μM; “B” a IC50 value from 0.5 μM to 1.0 μM; “C” a IC50 value of greater than 1.0 μM and less than or equal to 2.0 μM; and “D” indicates an IC50 value of greater than 2.0 μM. NT=Not Tested.

Full length Human HDAC1 = biological target: T2, Full length Human HDAC1 (Homo sapiens, UniProt Q13547); experiment: HDAC1 enzymatic assay (deacetylation of FAM-labeled peptide substrate, microfluidic electrophoresis); type: biochemical; conditions: for IC50: recombinant enzymatic assay
T2 construct: Full length Human HDAC1; His (C); FLAG (C); host or cells: baculovirus expression system
Experimental: as §1, §2, §3, §4, §5, §6, §7, §8, §9, §10, §11

HDAC2 = biological target: T3, HDAC2 (Homo sapiens, UniProt Q92769); experiment: HDAC2 Enzymatic Inhibition Assay in SH-SY5Y Cell Lysate with an Exogenous Substrate (HDAC-Glo 2); type: cell-based; conditions: for IC50: SH-SY5Y cells
T3 construct: host or cells: SH-SY5Y cells
Experimental: HDAC2 Enzymatic Inhibition Assay in SH-SY5Y Cell Lysate with an Exogenous Substrate
SH-SY5Y cells (Sigma) were cultured in Eagle's Modified Essential Medium supplemented with 10% fetal bovine serum and pen/strep. Twenty-four hours prior to compound dosing 20 uL of cells were plated in white 384 well plates at a density of 1,500 cells/well. Compounds were serially diluted in neat DMSO and then diluted 1:100 v/v into media without FBS and mixed. Media was removed from the plated cells and the diluted compounds in serum free media (1% v/v final DMSO) were added and incubated at 37° C. for five hours. Ten uL of HDAC-Glo 2 reagent with 0.1% Triton X-100 was then added, the plate was mixed and allowed to develop at room temperature for 100 minutes. Plates were then read with a Spectramax LMax luminometer employing a 0.4 s integration time. Dose response curves were constructed with normalized data where CI-994 at 100 uM was defined as 100% inhibition and DMSO alone as 0% inhibition.
as §11

[1] = five hours incubation, Table 3, class symbols
[2] = versus matched Comparator with heteroaromatic ring directly linked to azetidine

T3 sequence (Q92769 whole entry): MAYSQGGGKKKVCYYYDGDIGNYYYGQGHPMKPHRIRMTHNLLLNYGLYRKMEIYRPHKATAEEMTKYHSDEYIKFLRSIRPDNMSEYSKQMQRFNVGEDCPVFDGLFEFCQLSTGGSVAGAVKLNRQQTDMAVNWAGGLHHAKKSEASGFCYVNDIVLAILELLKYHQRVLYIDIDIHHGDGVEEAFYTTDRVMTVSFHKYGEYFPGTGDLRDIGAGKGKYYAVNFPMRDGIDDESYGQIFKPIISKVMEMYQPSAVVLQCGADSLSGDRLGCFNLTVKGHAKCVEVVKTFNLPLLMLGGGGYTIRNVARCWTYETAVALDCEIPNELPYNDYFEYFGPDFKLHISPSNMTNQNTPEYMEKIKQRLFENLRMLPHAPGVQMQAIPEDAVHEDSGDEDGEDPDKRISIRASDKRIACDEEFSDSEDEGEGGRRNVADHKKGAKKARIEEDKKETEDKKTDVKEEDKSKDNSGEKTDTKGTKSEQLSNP
T1 sequence (Q92769 whole entry): as above
T2 sequence (Q13547 whole entry): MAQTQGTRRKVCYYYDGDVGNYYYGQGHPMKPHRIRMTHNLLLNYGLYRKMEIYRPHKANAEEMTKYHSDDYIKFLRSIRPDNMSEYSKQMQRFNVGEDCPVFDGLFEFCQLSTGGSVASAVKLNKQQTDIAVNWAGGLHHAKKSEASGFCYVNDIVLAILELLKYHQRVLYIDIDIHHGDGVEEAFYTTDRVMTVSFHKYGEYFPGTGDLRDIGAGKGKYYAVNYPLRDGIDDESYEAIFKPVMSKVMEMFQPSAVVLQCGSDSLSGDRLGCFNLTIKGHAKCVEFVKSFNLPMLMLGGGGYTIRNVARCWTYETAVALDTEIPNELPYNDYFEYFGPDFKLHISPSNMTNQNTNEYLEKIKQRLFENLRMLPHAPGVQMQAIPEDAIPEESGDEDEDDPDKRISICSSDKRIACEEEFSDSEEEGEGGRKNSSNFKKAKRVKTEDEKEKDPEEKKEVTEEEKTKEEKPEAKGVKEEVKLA

Row | IC50 (Full length Human HDAC2; Table 2, class symbols) | IC50 (Full length Human HDAC1; Table 2, class symbols) | IC50 (HDAC2; [1]) | SMILES | further results
1 | 1000 to 2000 nM | 500 to 1000 nM | < 500 nM | CC(c1ncccn1)C1CN(C(=O)Nc2nc(-c3ccc(F)cc3F)ccc2N)C1 (centres unmarked) [Compound 42] | 
2 | 500 to 1000 nM | < 500 nM | < 500 nM | Nc1ccc(-c2ccc(F)cc2F)nc1NC(=O)N1CC(Cc2ncccn2)C1 [Compound 1] | IC50 (Full length Human HDAC2; Table 4, numeric): 700 nM; fold more potent in the HDAC2 recombinant enzymatic assay than the corresponding comparator without spacer X (Full length Human HDAC2; [2]): > 7 fold; IC50 (Full length Human HDAC1; Table 4, numeric): 454 nM; fold more potent in the HDAC1 recombinant enzymatic assay than the corresponding comparator without spacer X (Full length Human HDAC1; [2]): 10 fold; IC50 (HDAC2; Table 4, numeric): 496 nM; fold more potent in the SH-SY5Y cell assay than the corresponding comparator without spacer X (HDAC2; [2]): 100 fold
3 | > 2000 nM | 1000 to 2000 nM | 1000 to 2000 nM | Cn1ccnc1CC1(F)CN(C(=O)Nc2nc(-c3ccc(F)cc3)ccc2N)C1 [Compound 86] | 
4 |  |  | > 2000 nM | Nc1ccc(-c2ccc(F)cc2F)nc1NC(=O)N1CC(Cc2cncnc2)C1 [Compound 20] | 
5 |  |  | 1000 to 2000 nM | Cc1cnc(CC2CN(C(=O)Nc3nc(-c4ccc(F)cc4)ccc3N)C2)o1 [Compound 63] | 
6 |  |  | 1000 to 2000 nM | Nc1ccc(-c2ccc(F)cc2F)nc1NC(=O)N1CC(Cc2ccncn2)C1 [Compound 32] | 
7 | 1000 to 2000 nM | 1000 to 2000 nM | 500 to 1000 nM | Cc1cc(CC2CN(C(=O)Nc3nc(-c4ccc(F)cc4F)ccc3N)C2)ncn1 [Compound 19] | 
8 |  |  |  | Cc1cnc(C2CN(C(=O)Nc3nc(-c4ccc(F)cc4F)ccc3N)C2)cn1 [Comparator C, reference compound] | IC50 (Full length Human HDAC2; Table 4, numeric): 13500 nM; IC50 (Full length Human HDAC1; Table 4, numeric): 13900 nM; IC50 (HDAC2; Table 4, numeric): 9700 nM
9 |  |  | > 2000 nM | CC(F)(c1ncccn1)C1CN(C(=O)Nc2nc(-c3ccc(F)cc3F)ccc2N)C1 (centres unmarked) [Compound 60] | 
10 | < 500 nM | < 500 nM | 500 to 1000 nM | Nc1ccc(-c2ccc(F)cc2)nc1NC(=O)N1CC(Cc2ncc(F)cn2)C1 [Compound 27] | 
11 | 500 to 1000 nM | 500 to 1000 nM | 1000 to 2000 nM | Nc1ccc(-c2ccc(F)cc2F)nc1NC(=O)N1CC(Cc2cnccn2)C1 [Compound 12] | 
12 | 1000 to 2000 nM | 1000 to 2000 nM | > 2000 nM | Nc1ccc(-c2ccc(F)cc2F)nc1NC(=O)N1CC(Cc2nnc(C(F)(F)F)s2)C1 [Compound 46] | 
13 | 1000 to 2000 nM | 500 to 1000 nM | 1000 to 2000 nM | Cn1ccnc1CC1CN(C(=O)Nc2nc(-c3ccc(F)cc3F)ccc2N)C1 [Compound 47] | 
14 |  |  | 500 to 1000 nM | Cc1cnc(CC2CN(C(=O)Nc3nc(-c4ccc(F)s4)ccc3N)C2)nc1 [Compound 67] | 
15 | 1000 to 2000 nM | 1000 to 2000 nM | > 2000 nM | Cc1ccc(CC2CN(C(=O)Nc3nc(-c4ccc(F)cc4F)ccc3N)C2)cn1 [Compound 5] | 
16 | 500 to 1000 nM | < 500 nM | 1000 to 2000 nM | Cc1ccnc(CC2CN(C(=O)Nc3nc(-c4ccc(F)cc4)ccc3N)C2)n1 [Compound 72] | 
17 | 500 to 1000 nM | < 500 nM | 1000 to 2000 nM | Nc1ccc(-c2ccc(F)s2)nc1NC(=O)N1CC(Cc2ncc(F)cn2)C1 [Compound 61] | 
18 | 500 to 1000 nM | < 500 nM | 1000 to 2000 nM | Nc1ccc(-c2ccc(F)cc2)nc1NC(=O)N1CC(Cc2ccccn2)C1 [Compound 74] | 
19 | 1000 to 2000 nM | < 500 nM | > 2000 nM | Nc1ccc(-c2ccc(F)cc2)nc1NC(=O)N1CC(Cc2ccc(F)cn2)C1 [Compound 77] | 
20 | 1000 to 2000 nM | 500 to 1000 nM | 500 to 1000 nM | Nc1ccc(-c2ccc(F)cc2F)nc1NC(=O)N1CC(C(F)c2ncccn2)C1 (centres unmarked) [Compound 40] | 
21 |  |  | > 2000 nM | Nc1ccc(-c2ccc(F)cc2)nc1NC(=O)N1CC(Cc2ccc(C(F)(F)F)cn2)C1 [Compound 85] | 
22 | 500 to 1000 nM | < 500 nM | 1000 to 2000 nM | CC(c1ncccn1)C1CN(C(=O)Nc2nc(-c3ccc(F)cc3)ccc2N)C1 (centres unmarked) [Compound 57] | 
23 | 500 to 1000 nM | < 500 nM | 1000 to 2000 nM | COCc1cnc(CC2CN(C(=O)Nc3nc(-c4ccc(F)cc4)ccc3N)C2)nc1 [Compound 82] | 
24 | 500 to 1000 nM | < 500 nM | > 2000 nM | Nc1ccc(-c2ccc(F)cc2F)nc1NC(=O)N1CC(Oc2ncccn2)C1 [Compound 59] | 

Row | IC50 (Full length Human HDAC2; Table 2, class symbols) | IC50 (Full length Human HDAC1; Table 2, class symbols) | IC50 (HDAC2; [1]) | SMILES | further results
25 |  |  | 1000 to 2000 nM | CC(c1ncccn1)C1CN(C(=O)Nc2nc(-c3ccccc3F)ccc2N)C1 (centres unmarked) [Compound 58] | 
26 | > 2000 nM | > 2000 nM | > 2000 nM | Cc1nccc(CC2CN(C(=O)Nc3nc(-c4ccc(F)cc4F)ccc3N)C2)n1 [Compound 15] | 
27 |  |  | > 2000 nM | Nc1ccc(-c2ccc(F)cc2F)nc1NC(=O)N1CC(Oc2cccnc2)C1 [Compound 28] | 
28 | 1000 to 2000 nM | 500 to 1000 nM | 1000 to 2000 nM | Nc1ccc(-c2ccc(F)cc2)nc1NC(=O)N1CC(Cn2cccn2)C1 [Compound 73] | 
29 | > 2000 nM | > 2000 nM | 1000 to 2000 nM | COC1(Cc2nccn2C)CN(C(=O)Nc2nc(-c3ccc(F)cc3)ccc2N)C1 [Compound 87] | 
30 |  |  | > 2000 nM | Nc1ccc(-c2ccc(F)cc2F)nc1NC(=O)N1CC(Cc2ccn3cncc3c2)C1 [Compound 8] | 
31 | > 2000 nM | 1000 to 2000 nM | > 2000 nM | COCc1ccc(CC2CN(C(=O)Nc3nc(-c4ccc(F)cc4F)ccc3N)C2)cn1 [Compound 9] | 
32 |  |  | > 2000 nM | Nc1ccc(-c2ccc(F)cc2F)nc1NC(=O)N1CC(Cc2ccc(C(F)(F)F)cn2)C1 [Compound 49] | 
33 |  |  | > 2000 nM | Cc1cc(C)nc(CC2CN(C(=O)Nc3nc(-c4ccc(F)cc4F)ccc3N)C2)n1 [Compound 50] | 
34 |  |  | > 2000 nM | Cc1cnc(CC2CN(C(=O)Nc3nc(-c4ccc(F)s4)ccc3N)C2)o1 [Compound 62] | 
35 |  |  | > 2000 nM | Cc1cc(CC2CN(C(=O)Nc3nc(-c4ccc(F)cc4F)ccc3N)C2)nc(C)n1 [Compound 10] | 
36 |  |  | > 2000 nM | Cc1cnc(CC2CN(C(=O)Nc3nc(-c4ccc(F)cc4F)ccc3N)C2)o1 [Compound 55] | 
37 |  |  | > 2000 nM | Cc1ccn(CC2CN(C(=O)Nc3nc(-c4ccc(F)cc4F)ccc3N)C2)n1 [Compound 53] | 
38 |  |  | > 2000 nM | Cc1cnc(CC2CN(C(=O)Nc3nc(-c4ccc(F)cc4F)ccc3N)C2)s1 [Compound 25] | 
39 |  |  | > 2000 nM | Nc1ccc(-c2ccc(F)cc2F)nc1NC(=O)N1CC(OCc2ccccn2)C1 [Compound 29] | 
40 |  |  | > 2000 nM | COCc1cc(CC2CN(C(=O)Nc3nc(-c4ccc(F)cc4F)ccc3N)C2)ccn1 [Compound 18] | 
41 |  |  | > 2000 nM | Cc1cn(CC2CN(C(=O)Nc3nc(-c4ccc(F)cc4F)ccc3N)C2)cn1 [Compound 51] | 
42 |  |  | > 2000 nM | Cc1cncn1CC1CN(C(=O)Nc2nc(-c3ccc(F)cc3F)ccc2N)C1 [Compound 52] | 
43 |  |  | > 2000 nM | CCC(c1ncccn1)C1CN(C(=O)Nc2nc(-c3ccc(F)cc3F)ccc2N)C1 (centres unmarked) [Compound 56] | 
44 |  |  | > 2000 nM | COCc1cccc(CC2CN(C(=O)Nc3nc(-c4ccc(F)cc4F)ccc3N)C2)n1 [Compound 17] | 
45 |  |  | > 2000 nM | Nc1ccc(-c2ccc(F)cc2)nc1NC(=O)N1CC(C(F)(F)c2ccccn2)C1 [Compound 75] | 
46 |  |  | > 2000 nM | Nc1ccc(-c2ccc(F)cc2F)nc1NC(=O)N1CC(Cc2cccc3nccn23)C1 [Compound 48] | 
47 |  |  | 1000 to 2000 nM | Cc1ccnn1CC1CN(C(=O)Nc2nc(-c3ccc(F)cc3F)ccc2N)C1 [Compound 54] | 
48 |  |  | 1000 to 2000 nM | Nc1ccc(-c2ccc(F)cc2F)nc1NC(=O)N1CC(C(F)c2ncc(F)cn2)C1 (centres unmarked) [Compound 41] | 
